Data taken from article PMC12920379 (European Journal of Nuclear Medicine and Molecular Imaging, 2025).

Key:
[1] = Morphological assessment / tolerability of treated PC3-mice; format: in vivo
Protocol: Selected mouse organs (kidney, pancreas and tumor) were dissected from the sacrificed animals and immediately frozen using liquid nitrogen. Frozen tissue samples were sectioned at 7 μm thickness using a cryostat maintained at −20 °C to −25 °C and mounted onto microscope glass slides, followed by staining with hematoxylin and eosin for microscopic examination using standard protocols (supplementary material).
Frozen tissue samples (kidney, pancreas and tumor) were sectioned at 7 µm thickness using a cryostat maintained at −20°C to −25°C and mounted onto microscope glass slides. Sections were air-dried at room temperature for 15 minutes and subsequently fixed in 4% paraformaldehyde for 10 minutes. After rinsing in phosphate-buffered saline, slides were stained with hematoxylin for 5 minutes, rinsed in running tap water and differentiated in 1% acid alcohol followed by bluing in ammonia water. Sections were then counterstained with eosin for 1 minute and briefly washed in 70% ethanol to remove excess stain. Slides were dehydrated through graded ethanol (70%, 95%, 100%) and mounted with a permanent mounting medium. Stained sections were examined using a light microscope.

PC3 tumors = test: In vivo combination therapy with everolimus in PC3-mice
Protocol: (b) Everolimus monotherapy: Mice received everolimus (5 mg/kg/day) on days 0, 2, and 4 of the therapy.

CO[C@H]1C[C@@H]2CC[C@@H](C)[C@@](O)(O2)C(=O)C(=O)N2CCCC[C@H]2C(=O)O[C@H]([C@H](C)C[C@@H]2CC[C@@H](OCCO)[C@H](OC)C2)CC(=O)[C@H](C)/C=C(\C)[C@@H](O)[C@@H](OC)C(=O)[C@H](C)C[C@H](C)/C=C/C=C/C=C/1C [everolimus]
Microscopic tissue examination, kidney ([1]; 5mg/kg (x3)): Vacuolar degeneration of some tubular epithelial cells. No other obvious lesions
Microscopic tissue examination, pancreas ([1]; 5mg/kg (x3)): No obvious lesions.
Tolerability (physical condition, weight fluctuations) ([1]; PC3-mice, three doses of everolimus): no observable side effects
Time tumor volume kept under 500 mm^3 (PC3 tumors; everolimus alone 5 mg/kg/day on days 0, 2, 4): 20 days
Median survival (PC3 tumors; everolimus alone 5 mg/kg/day on days 0, 2, 4, p > 0.5): ~ 25 days
